Assay results from patent publication US20220153718A1, “SYNTHESIS OF STABLE AMORPHOUS APALUTAMIDE” (OLON S.P.A., priority 2019, published 2022).

Test: Solid-form stability under forced-air drying (XRPD)
Type: physicochemical
Details: drying at 90° C. for over 100 hours, under vacuum, in a stove
Procedure: Forced-air drying here means drying at 90° C. for over 100 hours, under vacuum, in a stove.

Compound | Stability of the amorphous form after forced-air drying
CNC(=O)c1ccc(N2C(=S)N(c3cnc(C#N)c(C(F)(F)F)c3)C(=O)C23CCC3)cc1F [amorphous form obtained by evaporation of the solvent after ] [4-{7-[6-cyano-5-(trifluoromethyl)pyridin-3-yl]-8-oxo-6-sulphanylidene-5,7-diazaspiro[3,4]octan-5-yl}-2-fluoro-N-methylbenzamide] | converted to a mixture of amorphous form, form A and form B
CNC(=O)c1ccc(N2C(=S)N(c3cnc(C#N)c(C(F)(F)F)c3)C(=O)C23CCC3)cc1F [stable amorphous form of apalutamide, 4-{7-[6-cyano-5-(trifluoromethyl)pyridin-3-yl]-8-oxo-6-sulphanylidene-5,7-diazaspiro[3,4]octan-5-yl}-2-fluoro-N-methylbenzamide] | stable
